Measured values as given in patent publication US8680155B2, “Synthesis and antitumor activity of novel bis(benzylidene-benzenamine)disulfides” (Kaohsiung Medical University, priority 2011, dated 2014).

Columns and labels:
[1] = system: A2058; experiment: MTT survival, A2058 melanoma; assay type: cell-based, human; settings: A2058, 10 μM
Experimental: (§1) Next, in vitro cytotoxicity of the multiple compounds in various cell lines was evaluated, which also was performed using MTT colorimetric assay. […] Comparing breast cancer cells MCF-7 with other cancer cells, most selected compounds had higher inhibition activity to MCF-7 cells. Therefore, breast cancer cells MCF-7 were chosen to be the research target in the following experiments.

[2] = system: A375; experiment: MTT survival, A375 melanoma; assay type: cell-based, human; settings: A375, 10 μM
Experimental: as §1

[3] = system: 293T; experiment: MTT survival, 293T kidney cancer; assay type: cell-based, human
Experimental: as §1

[4] = system: H1335; experiment: MTT survival, H1335 lung cancer; assay type: cell-based, human; settings: H1335, 10 μM
Experimental: as §1

[5] = system: A549; experiment: MTT survival, A549 lung cancer; assay type: cell-based, human; settings: A549, 10 μM
Experimental: as §1

[6] = system: MCF-7; experiment: MTT survival, MCF-7 breast cancer; assay type: cell-based, human; settings: MCF-7, 10 μM
Experimental: as §1

[7] = system: Cal-27; experiment: MTT survival, Cal-27 oral cancer; assay type: cell-based, human; settings: Cal-27, 10 μM
Experimental: as §1

[8] = system: Ca-922; experiment: MTT survival, Ca-922 oral cancer; assay type: cell-based, human; settings: Ca-922, 10 μM
Experimental: as §1

[9] = system: breast cancer cells MCF-7; experiment: Cell cycle analysis by flow cytometry (PI staining); assay type: cell-based, human; settings: MCF-7, 5 μM, 24 hours; control 11.54%
Experimental: This experiment was performed by treating breast cancer cells MCF-7 with compounds, and then cell cycle was analyzed using flow cytometry known by the skilled person in the art. Firstly, breast cancer cells MCF-7 were treated with the prepared compounds (5 μM) for 24 hours and stained with propidium iodide (PI). Approximately 10000 cells from each sample were analyzed with FACScan flow cytometer and software. […] The sub-G1 DNA Peaks for compounds 4, 5, 7, 18, 21, 23 and 24 were 20.64%, 17.92%, 26.22%, 11.95%, 19.85%, 4.35% and 33.89% respectively (data not shown), while the sub-G1 DNA peak for control (without any drug treatment) was 11.54%.

[10] = system: mouse melanoma cells B16; experiment: MTT growth inhibition on murine melanoma cells (FIG. 1); assay type: cell-based; settings: 10 μM, 48 hours
Experimental: In addition, for recognizing whether the prepared disulfides had cytotoxicity to normal cells and murine cells, human dermal fibroblasts and mouse melanoma cells B16 were selected as the models using MTT colorimetric assay. First, fibroblasts or B16 cells were seeded in 96-well culture plate at 2500 cells per well and cultivated overnight until cell attachment. Each compound (10 μM) was added into the culture media in triplicate and incubated for 48 hours, and finally MTT reagent was added into each well to detect absorbance.
Please refer to FIG. 1, which illustrates the growth inhibition of various compounds to human dermal fibroblast and B16 cells.

[11] = system: phosphorylated p38 protein; experiment: Phosphorylated p38 expression by immunoblotting in MCF-7 cells; assay type: cell-based, human; settings: MCF-7, 24-hour treatment, different concentrations
Experimental: P38 protein in p38 mitogen-activated protein kinase (MAPK) pathway was chosen to be the index of apoptosis in this experiment, and phosphorylated p38 expression was evaluated using immunoblotting assay known by the skilled person in the art. Cellular protein was harvested after the 24-hour treatment of compound 24 on MCF-7 cells, and then resolved with sodium dodecyl sulfate (SDS)-polyacrylamide gel electrophoresis and developed using immunoblotting. […] In combination with aforementioned experimental results, compound 24 and other compounds could induce cancer cell apoptosis.

[12] = system: melanoma cells B16 tumor; experiment: Antitumor activity in B16 tumor-bearing mice; assay type: in vivo; settings: injection into sole of feet, B16 in C57BL/6 mice
Experimental: Firstly, a total of 5×10^6 melanoma cells B16 were inoculated into female C57BL/6 mice (about 19˜21 grams/7 to 9 weeks). […] When tumor reached about 4 mm×4 mm in diameter, mice were separated into groups. Each group had four mice in each experiment. Tumor volume were majored by calipers each two days after compound injection into each sole of feet of mice or without compound injection (control), and tumor volume was calculated by following formula: Tumor volume=[…] (Equation I)

[13] = system: HOP-92; experiment: MTT cytotoxicity, HOP-92 non-small cell lung cancer; assay type: cell-based; settings: HOP-92, MTT
Experimental: (§2) For confirming the cytotoxicity of bis(benzylidene-benzenamine)disulfides of the invention on various cancer cells, the well known MTT (3-(4,5-dimethylthiazol-2-yl)-2,5-diphenyltetrazolium bromide) colorimetric assay in this art was performed, and the method was not detailedly described herein. Please refer to Table 3, compound 12 was selected from compounds 1 to 24 to proceed cytotoxicity experiment.

[14] = system: NCI-H226; experiment: MTT cytotoxicity, NCI-H226 non-small cell lung cancer; assay type: cell-based
Experimental: as §2

[15] = system: HCT-15; experiment: MTT cytotoxicity, HCT-15 colon cancer; assay type: cell-based; settings: HCT-15, MTT
Experimental: as §2

[16] = system: SNB-75; experiment: MTT cytotoxicity, SNB-75 central nervous system cancer; assay type: cell-based; settings: SNB-75, MTT
Experimental: as §2

[17] = system: LOX MVI; experiment: MTT cytotoxicity, LOX MVI melanoma; assay type: cell-based
Experimental: as §2

[18] = system: MALME-3M; experiment: MTT cytotoxicity, MALME-3M melanoma; assay type: cell-based
Experimental: as §2

[19] = system: SK-MEL-5; experiment: MTT cytotoxicity, SK-MEL-5 melanoma; assay type: cell-based; settings: SK-MEL-5, MTT
Experimental: as §2

[20] = system: IGROV1; experiment: MTT cytotoxicity, IGROV1 ovarian cancer; assay type: cell-based
Experimental: as §2

[21] = system: T-47D; experiment: MTT cytotoxicity, T-47D breast cancer; assay type: cell-based
Experimental: as §2

[22] = system: selected cancer cell lines; experiment: MTT cytotoxicity, mean over cancer cell lines; assay type: cell-based; settings: read-out: mean 50% growth inhibition (GI50)
Experimental: as §2

Row | Structure (SMILES) | Survival (% control) of compound (10 μM) [1] [% control] | Survival (% control) of compound (10 μM) [2] [% control] | Survival (% control) of compound (10 μM) [3] [% control] | Survival (% control) of compound (10 μM) [4] [% control] | Survival (% control) of compound (10 μM) [5] [% control] | Survival (% control) of compound (10 μM) [6] [% control] | Survival (% control) of compound (10 μM) [7] [% control] | Survival (% control) of compound (10 μM) [8] [% control] | sub-G1 DNA peak [9] [%] | other results
1 | O=[N+]([O-])c1ccc(C(=Nc2ccc(Cl)cc2)SSC(=Nc2ccc(Cl)cc2)c2ccc([N+](=O)[O-])cc2)cc1 [Compound 5] | 97.5 ± 0.02 | 79.4 ± 0.11 | 70.9 ± 0.24 | 75.8 ± 0.10 | 82.4 ± 0.06 | 54.3 ± 0.32 | 100.1 ± 0.07 | 79.4 ± 0.08 | 17.92 | 
2 | Cc1cc(C(=Nc2ccc(Cl)cc2)SSC(=Nc2ccc(Cl)cc2)c2ccc([N+](=O)[O-])c(C)c2)ccc1[N+](=O)[O-] [Compound 7] | 99.6 ± 0.02 | 92.4 ± 0.04 | 71.2 ± 0.23 | 67.4 ± 0.13 | 78.7 ± 0.07 | 51.7 ± 0.34 | 101.7 ± 0.09 | 96.2 ± 0.02 | 26.22 | 
3 | Cc1ccc(N=C(SSC(=Nc2ccc(C)c([N+](=O)[O-])c2)c2ccc(C(F)(F)F)cc2)c2ccc(C(F)(F)F)cc2)cc1[N+](=O)[O-] [Compound 17] |  | 103.2 ± 0.02 | 75.3 ± 0.21 | 81.4 ± 0.08 | 76.9 ± 0.07 |  | 107.1 ± 0.08 | 82.1 ± 0.07 |  | 
4 | Cc1c(N=C(SSC(=Nc2cccc([N+](=O)[O-])c2C)c2ccc(F)cc2)c2ccc(F)cc2)cccc1[N+](=O)[O-] [Compound 18] | 95.9 ± 0.02 | 91.5 ± 0.04 | 71.1 ± 0.23 | 70.0 ± 0.13 | 75.5 ± 0.08 | 33.1 ± 0.47 | 94.9 ± 0.07 | 79.4 ± 0.09 | 11.95 | 
5 | Cc1c(N=C(SSC(=Nc2cccc([N+](=O)[O-])c2C)c2ccc(C(F)(F)F)cc2)c2ccc(C(F)(F)F)cc2)cccc1[N+](=O)[O-] [Compound 24] | 34.9 ± 0.42 | 59.5 ± 0.22 | 24.2 ± 0.59 | 26.0 ± 0.32 | 53.4 ± 0.15 | 8.6 ± 0.64 | 73.5 ± 0.22 | 45.5 ± 0.22 | 33.89 | growth inhibition / apoptosis in murine melanoma B16 [10]: significantly made; phosphorylation of p38 protein [11]: dependent on the concentration; tumor volume over time ([12]; 2 mg/kg): not markedly increased; tumor volume compared to the untreated group ([12]; 4 mg/kg): significantly suppressed
6 | Cc1cc(C(=Nc2ccccc2)SSC(=Nc2ccccc2)c2ccc([N+](=O)[O-])c(C)c2)ccc1[N+](=O)[O-] [Compound 1] |  | 90.3 ± 0.05 | 76.5 ± 0.19 | 69.8 ± 0.13 | 71.5 ± 0.09 |  | 100.9 ± 0.09 | 80.8 ± 0.08 |  | 
7 | O=[N+]([O-])c1cc(N=C(SSC(=Nc2ccc(F)c([N+](=O)[O-])c2)c2ccc(C(F)(F)F)cc2)c2ccc(C(F)(F)F)cc2)ccc1F [Compound 23] | 93.2 ± 0.04 | 94.3 ± 0.03 | 57.8 ± 0.33 | 80.2 ± 0.08 | 64.4 ± 0.12 | 57.1 ± 0.30 | 92.4 ± 0.16 | 65.8 ± 0.14 | 4.35 | growth inhibition / apoptosis in murine melanoma B16 [10]: significantly made
8 | Cc1cc([N+](=O)[O-])ccc1N=C(SSC(=Nc1ccc([N+](=O)[O-])cc1C)c1ccc(C(F)(F)F)cc1)c1ccc(C(F)(F)F)cc1 [Compound 12] |  |  |  |  |  |  |  |  |  | GI50 [13]: 175 nM; GI50 [14]: 427 nM; GI50 [15]: 388 nM; GI50 [16]: 141 nM; GI50 [17]: 304 nM; GI50 [18]: 252 nM; GI50 [19]: 262 nM; GI50 [20]: 217 nM; GI50 [21]: 221 nM; GI50 [22]: 372 nM
9 | Cc1ccc([N+](=O)[O-])cc1N=C(SSC(=Nc1cc([N+](=O)[O-])ccc1C)c1ccc(F)cc1)c1ccc(F)cc1 [Compound 21] | 76.3 ± 0.15 | 81.1 ± 0.10 | 32.8 ± 0.52 | 80.6 ± 0.08 | 62.1 ± 0.12 | 13.8 ± 0.60 | 76.6 ± 0.20 | 66.7 ± 0.13 | 19.85 | 
10 | O=[N+]([O-])c1ccc(C(=Nc2ccc(C(F)(F)F)cc2)SSC(=Nc2ccc(C(F)(F)F)cc2)c2ccc([N+](=O)[O-])cc2)cc1 [Compound 4] | 92.6 ± 0.05 | 84.6 ± 0.08 | 64.6 ± 0.28 | 66.0 ± 0.14 | 65.4 ± 0.11 | 59.6 ± 0.28 | 102.5 ± 0.06 | 80.1 ± 0.08 | 20.64 | 
